Test results published in article PMC12664493, “Asparagine endopeptidase (AEP) inhibitor formulation via zein-based nanoparticle improves the therapeutic efficacy toward Alzheimer's disease” (Neurotherapeutics, 2025).
Like-named read-outs stand apart in the source and are kept apart here.

Key:
[1] = target: T1, AEP (Rattus norvegicus, UniProt Q9R0J8); test: AEP inhibition in cultured primary neurons; format: cell-based
T1 construct: endogenous in cells; host or cells: primary rat cortical neurons
T1 sequence (Q9R0J8 18-435): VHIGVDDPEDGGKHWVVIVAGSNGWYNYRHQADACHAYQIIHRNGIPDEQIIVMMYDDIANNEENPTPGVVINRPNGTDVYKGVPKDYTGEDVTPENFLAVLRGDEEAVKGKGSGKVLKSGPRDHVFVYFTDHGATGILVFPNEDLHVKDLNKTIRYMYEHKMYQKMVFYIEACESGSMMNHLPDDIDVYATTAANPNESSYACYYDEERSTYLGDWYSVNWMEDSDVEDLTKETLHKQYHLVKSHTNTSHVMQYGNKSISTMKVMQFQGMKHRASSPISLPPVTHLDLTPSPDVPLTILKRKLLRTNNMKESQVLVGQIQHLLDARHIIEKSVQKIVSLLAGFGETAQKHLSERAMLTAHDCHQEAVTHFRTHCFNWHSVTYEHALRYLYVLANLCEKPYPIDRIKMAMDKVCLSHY

[2] = Stability in mouse liver microsomes; format: in vitro ADME; details: read-out: Stability-Microsomes T1/2
[3] = target: T2, AEP (Mus musculus, UniProt O89017); test: Acute PD in 3xTg mice: brain AEP enzymatic activity and immunoblotting; format: in vivo; details: 2 h
T2 construct: from tissue; host or cells: brain / hippocampus of 3xTg mice
T2 sequence (O89017 18-435): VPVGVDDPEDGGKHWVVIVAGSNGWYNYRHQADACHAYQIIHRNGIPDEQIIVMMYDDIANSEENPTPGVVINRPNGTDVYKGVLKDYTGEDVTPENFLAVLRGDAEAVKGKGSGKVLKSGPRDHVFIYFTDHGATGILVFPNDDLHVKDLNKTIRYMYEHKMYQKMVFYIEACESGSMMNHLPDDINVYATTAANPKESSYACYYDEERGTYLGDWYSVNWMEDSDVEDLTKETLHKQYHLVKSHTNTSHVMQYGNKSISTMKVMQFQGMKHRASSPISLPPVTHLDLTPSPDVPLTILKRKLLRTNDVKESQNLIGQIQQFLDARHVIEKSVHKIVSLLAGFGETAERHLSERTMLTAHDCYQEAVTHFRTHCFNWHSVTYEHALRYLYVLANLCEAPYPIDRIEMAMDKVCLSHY

[4] = PAMPA-BBB permeability assay; format: in vitro ADME; details: read-out: Permeability-PAMPA-BBB Pe
[5] = target: T1, AEP; test: Titration assay of Aβ42-induced AEP activation in primary neurons (immunoblotting); format: cell-based; details: 2 μM pre-aggregated Aβ42, 24 h
[6] = Plasma protein binding, mouse; format: in vitro ADME
[7] = Caco-2 permeability; format: in vitro ADME; details: human
[8] = Stability in human hepatocytes; format: in vitro ADME
[9] = Stability in human liver microsomes; format: in vitro ADME
[10] = system: 3xTg mice; test: Y-maze test in 3xTg mice; format: in vivo, mouse; details: 7.5 mg/kg P.O. daily, one month
Text: Blood and brain tissues were collected at 0, 0.08, 0.25, 0.5, 1, 2, 4, and 8 h post-administration. For acute pharmacodynamic (PD) assessments, male and female 3xTg mice received oral doses of NP-11a-isopropyl at 7.5 mg/kg or 15 mg/kg, and blood and brain samples were collected 2 h after treatment.
The Y-maze test was employed to evaluate spatial working memory and spontaneous alternation behavior, a measure of natural exploratory pattern integrity. The apparatus comprised three symmetrical opaque arms (A, B, C; 30 cm length × 8 cm width × 15 cm height) intersecting at 120° angles to form a Y-shaped configuration. Mice were habituated to the maze during a 5-min acclimatization period to minimize novelty-induced anxiety. Following habituation, spontaneous exploration was recorded for 8 min using an overhead camera, with all trials conducted under consistent low-light conditions to reduce environmental stress. EthoVision XT 12 software (Noldus, Wageningen, The Netherlands) quantified total arm entries, entry sequences, and alternation patterns (consecutive entries into three distinct arms without repetition). The maze was thoroughly cleaned with 70 % ethanol between trials to eliminate olfactory cues.

[11] = Solubility (pH 7.4, PBS); format: physicochemical

Which results are given for `CC(C)Nc1nnc(Nc2cc(CO)c(N3CCOCC3)c3nonc23)s1` [11a-isopropyl]?
IC50 [1]: 0.063 µM; half-life [2]: > 0.462 h; AEP enzymatic activity in the brain ([3]; acute P.O. 7.5 and 15 mg/kg, dose-dependent): substantially inhibited; Active AEP band intensity, hippocampus immunoblotting ([3]; acute P.O.): further suppressed; Papp [4]: 8.4 ×10⁻⁶ cm/s; Aβ42-induced AEP activation [5]: suppressed AEP activation in a dose-dependent manner; Plasma Protein F u, plasma(%) [6]: 20.4%; fraction unbound ([6]; plasma, as a fraction, from Table S1, read-out: Unbound plasma fraction (fu, plasma)): 0.204; Papp A→B ([7]; a-b, first value of the cell): 6.34 ×10⁻⁶ cm/s; Papp B→A ([7]; value after the slash, head names only a-b, read-out: Permeability-Caco-2 Papp, second value of the cell (taken as b-a)): 23.6 ×10⁻⁶ cm/s; hepatocyte CLint [8]: 22 µL/min/1e6 cells; half-life ([8]; read-out: Stability-Hepatocytes T1/2): 1.05 h; microsomal CLint [9]: 3.6 µL/min/mg; half-life ([9]; read-out: Stability-Microsomes T1/2): > 4 h; Cognitive function in the Y maze [10]: significantly improved; solubility ([11]; aqueous buffer, pH 7.4, read-out: Solubility (pH, media)): 2450 µg/mL; solubility ([11]; pH 7.4, aqueous buffer, pH7.4, read-out: Solubility (pH, media)): 6.25 mM
